One assay deals with KB. Description: Antiproliferative activity against human KB cells assessed as inhibition of cell growth after 72 hrs by methylene blue dye assay. Format: functional, cell-based.
The nature of assay [1]: Antiproliferative activity against human H460 cells assessed as inhibition of cell growth after 72 hrs by methylene blue dye assay. It is filed as functional, cell-based. As to conditions: NCI-H460, 72 h.
The subject of a further assay is HT-29. The assay can be described thus: Antiproliferative activity against human HT-29 cells assessed as inhibition of cell growth after 72 hrs by methylene blue dye assay. Format: functional, cell-based. The settings on record: HT-29, 72 h.
A short description of assay [2]: Antiproliferative activity against human MKN45 cells assessed as inhibition of cell growth after 72 hrs by methylene blue dye assay. Format: functional, cell-based. The settings on record: MKN-45, 72 h.
Assay [3] can be described thus: Antiproliferative activity against human KB-VIN10 cells overexpressing P-gp 170/MDR assessed as inhibition of cell growth after 72 hrs by methylene blue dye assay. Format: functional, cell-based. As to conditions: KB-VIN10, 72 h.
The target of assay [4] is Tubulin (Bos taurus, UniProt Q6B856+Q862L2+Q862F3). The assay can be described thus: Inhibition of bovine brain microtubule-associated protein rich tubulin polymerization by turbidimetric assay.
The target of assay [5] is T1, Tubulin (UniProt P68371+Q9H4B7+P0DPH7+P68366+Q13509+Q71U36+P04350+Q3ZCM7+P07437+P68363+Q9BQE3+Q6PEY2+Q13885+Q9BVA1+Q9BUF5). Description: Displacement of [3H]colchicine from long-chain biotin-labeled tubulin (unknown origin) at 1 uM after 2 hrs by competition binding scintillation proximity assay. Format: protein-complex assay. The settings on record: Homo sapiens.
Assay [6] addresses T1, Tubulin. Description: Displacement of [3H]colchicine from long-chain biotin-labeled tubulin (unknown origin) at 5 uM after 2 hrs by competition binding scintillation proximity assay. Format: protein-complex assay. As to conditions: Homo sapiens. A general note: Loss of bound radioactivity is the signal in a displacement assay; it reports binding, not function.

A word on the IC50: it is the concentration that inhibits the measured activity by half. Usually inhibition stands for the percentage by which the read-out fell short of the control. Lower therefore signals little suppression.

As for `COc1ccc(S(=O)(=O)N2CCc3cccc(-c4ccc(N(C)C)cc4)c32)cc1`, the IC50 with KB is 0.538 µM; in assay [1], 0.556 µM; in the assay with HT-29, 0.467 µM; in assay [2] it was 0.237 µM; in assay [3], 0.553 µM.
`COc1ccc(S(=O)(=O)N2CCc3cccc(-c4ccc(O)cc4)c32)cc1`: the IC50 amounted to 0.129 µM with KB; 0.114 µM in assay [1]; 0.133 µM in the assay on HT-29; 0.0826 µM in assay [2]; 0.123 µM in assay [3].
On the same counts, the results for `COc1ccc(S(=O)(=O)N2CCc3cccc(-c4cccs4)c32)cc1` are 0.214 µM, 0.229 µM, 0.2 µM, 0.165 µM and 0.251 µM.
As for `COc1ccc(S(=O)(=O)N2CCc3cccc(-c4ccncc4)c32)cc1`, the IC50 with KB came to 0.096 µM; in assay [1], 0.101 µM; in the assay with HT-29 it was 0.0875 µM; in assay [2], 0.0695 µM; in assay [3], 0.106 µM; against Tubulin [4] it was 2.2 µM. Moreover, the inhibition at Tubulin [5] stood at 54%; at Tubulin [6], 72%.
`COc1ccc(S(=O)(=O)N2CCc3cccc(-c4ccc(F)c(F)c4)c32)cc1`: the IC50 with KB came out at 0.045 µM; in assay [1], 0.046 µM; with HT-29, 0.057 µM; in assay [2], 0.0555 µM; in assay [3], 0.046 µM; against Tubulin [4], 2.3 µM. The inhibition at Tubulin [5] was 52%; at Tubulin [6] it was 72%.
Regarding `COc1ccc(S(=O)(=O)N2CCc3cccc(-c4cc(OC)c(OC)c(OC)c4)c32)cc1`, the half-maximal inhibitory concentration (IC50) was found to be 3.69 µM with KB; 6.34 µM in assay [1]; 5.1 µM in the assay with HT-29; 1.08 µM in assay [2]; 4.67 µM in assay [3].
For the compound `COc1ccc(S(=O)(=O)N2CCc3cccc(-c4ccccc4)c32)cc1`, the IC50 in the assay on KB came to 0.12 µM; in assay [1], 0.212 µM; with HT-29, 0.0965 µM; in assay [2], 0.117 µM; in assay [3] it was 0.107 µM.
As for `COc1ccc(S(=O)(=O)N2CCc3cccc(-c4ccco4)c32)cc1`, the IC50 with KB was 0.082 µM; in assay [1], 0.0945 µM; with HT-29, 0.0625 µM; in assay [2] it was 0.042 µM; in assay [3], 0.0792 µM; on Tubulin [4], 2.6 µM. The inhibition is 43% at Tubulin [5] and 68% at Tubulin [6].
For `COc1ccc(S(=O)(=O)N2CCc3cccc(-c4ccc(F)cc4)c32)cc1`, the IC50 was 0.086 µM in the assay on KB; 0.0955 µM in assay [1]; 0.0855 µM with HT-29; 0.079 µM in assay [2]; 0.0946 µM in assay [3]; 2.5 µM against Tubulin [4]. Further, the results for the inhibition on Tubulin [5] and on Tubulin [6] were 59% and 73%, respectively.
With `COc1ccc(S(=O)(=O)N2CCc3cccc(-c4cccnc4)c32)cc1`, the concentration for half-maximal inhibition (IC50) in the assay on KB turned out to be 0.0959 µM; in assay [1], 0.0896 µM; in the assay with HT-29, 0.0763 µM; in assay [2], 0.0685 µM; in assay [3] it was 0.0845 µM.
With `COc1ccc(S(=O)(=O)N2CCc3cccc(-c4ccc([N+](=O)[O-])cc4)c32)cc1`, the concentration for half-maximal inhibition (IC50) in the assay on KB turned out to be 0.0525 µM; in assay [1] it was 0.0531 µM; in the assay with HT-29, 0.0518 µM; in assay [2] it was 0.034 µM; in assay [3] it was 0.0513 µM; against Tubulin [4], 1.7 µM. The results for the inhibition at Tubulin [5] and at Tubulin [6] were 56% and 74%, respectively.
On to `COc1ccc(S(=O)(=O)N2CCc3cccc(-c4ccc(N)cc4)c32)cc1`, for which the half-inhibitory concentration (IC50) came out at 0.249 µM in the assay on KB; 0.288 µM in assay [1]; 0.3 µM with HT-29; 0.162 µM in assay [2]; 0.262 µM in assay [3].
For the compound `COc1cc2c(c(OC)c1OC)-c1ccc(OC)c(=O)cc1[C@@H](NC(C)=O)CC2` [COLCHICINE], the IC50 in assay [3] worked out at 0.121 µM.
For `COc1ccc(S(=O)(=O)N2CCc3cccc(-c4c(F)c(F)c(F)c(F)c4F)c32)cc1`, the IC50 with KB came out at 4.04 µM; in assay [1], 4.75 µM; with HT-29 it was 3.9 µM; in assay [2], 1.78 µM; in assay [3] it was 4.63 µM.
As to `COc1ccc(-c2cccc3c2N(S(=O)(=O)c2ccc(OC)cc2)CC3)cc1`, the IC50 in the assay on KB stood at 0.337 µM; in assay [1], 0.301 µM; in the assay with HT-29 it was 0.277 µM; in assay [2], 0.211 µM; in assay [3], 0.352 µM.
On the same counts, the results for `COc1ccc(S(=O)(=O)N2CCc3cccc(-c4ccc(F)nc4)c32)cc1` are 0.143 µM, 0.135 µM, 0.108 µM, 0.145 µM and 0.151 µM.
Regarding `COc1ccc(S(=O)(=O)N2CCc3cccc(-c4ccc(C#N)cc4)c32)cc1`, the 50% inhibitory concentration (IC50) in the assay on KB turned out to be 0.0311 µM; in assay [1], 0.0295 µM; in the assay on HT-29, 0.0242 µM; in assay [2] it was 0.0172 µM; in assay [3], 0.0292 µM; against Tubulin [4] it was 1.5 µM. The inhibition was 81% on Tubulin [5] and 92% at Tubulin [6].
On to `COc1ccc(S(=O)(=O)N2CCc3cccc(-c4cccc(F)c4)c32)cc1`, for which the IC50 came to 0.0985 µM with KB; 0.167 µM in assay [1]; 0.119 µM with HT-29; 0.0847 µM in assay [2]; 0.0924 µM in assay [3].

The values above are taken from ChEMBL document CHEMBL3217693, “Synthesis and biological evaluation of 7-arylindoline-1-benzenesulfonamides as a novel class of potent anticancer agents” (Medchemcomm, 2010).
